Results reported in PubChem BioAssay AID248 (DTP/NCI, 2004).
“And” between values parts separate entries of the source, which are not always exact repeats. Equal entries are not always repeated. Toxic doses and inconclusive results are not listed. Cut-off read from the data, not from the text of the source: active = T/C of 150% or more; inactive = T/C below 125%.

Test system: L1210 leukemia ip in BDF1 mice, survival T/C
Assay: NCI In Vivo Anticancer Drug Screen. Data for tumor model L1210 Leukemia (intraperitoneal) in B6D2F1 (BDF1) mice
Conditions: endpoint: mean survival time, higher = longer survival
In short: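 Transplantable tumor model; survival measured in treated vs vehicle control mice. Value = treated/control.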

[1] = dose: 25.0 mg/kg/injection, schedule: Q04DX002 (ip), vehicle: saline
[2] = dose: 50.0 mg/kg/injection, schedule: Q04DX002 (ip), vehicle: saline
[3] = dose: 25.0 mg/kg/injection, schedule: Q04DX003 (ip), vehicle: saline
[4] = dose: 50.0 mg/kg/injection, schedule: Q04DX003 (ip), vehicle: saline
[5] = dose: 100.0 mg/kg/injection, schedule: Q01DX009 (ip), vehicle: Klucel (hydroxypropylcellulose) (HPC)
[6] = dose: 200.0 mg/kg/injection, schedule: Q01DX009 (ip), vehicle: Klucel (hydroxypropylcellulose) (HPC)
[7] = dose: 100.0 mg/kg/injection, schedule: Q04DX003 (ip), vehicle: Klucel (hydroxypropylcellulose) (HPC)
[8] = dose: 200.0 mg/kg/injection, schedule: Q04DX003 (ip), vehicle: Klucel (hydroxypropylcellulose) (HPC)
[9] = dose: 400.0 mg/kg/injection, schedule: Q01DX009 (ip), vehicle: Klucel (hydroxypropylcellulose) (HPC)
[10] = dose: 400.0 mg/kg/injection, schedule: Q04DX003 (ip), vehicle: Klucel (hydroxypropylcellulose) (HPC)
[11] = dose: 100.0 mg/kg/injection, schedule: Q01DX001 (ip), vehicle: carboxymethylcellulose (CMC)
[12] = dose: 100.0 mg/kg/injection, schedule: Q04DX003 (ip), vehicle: saline with Tween-80
[13] = dose: 200.0 mg/kg/injection, schedule: Q01DX001 (ip), vehicle: carboxymethylcellulose (CMC)
[14] = dose: 200.0 mg/kg/injection, schedule: Q04DX003 (ip), vehicle: saline with Tween-80
[15] = dose: 400.0 mg/kg/injection, schedule: Q01DX001 (ip), vehicle: carboxymethylcellulose (CMC)
[16] = dose: 400.0 mg/kg/injection, schedule: Q04DX003 (ip), vehicle: saline with Tween-80
[17] = dose: 100.0 mg/kg/injection, schedule: Q04DX002 (ip), vehicle: Klucel (hydroxypropylcellulose) (HPC)
[18] = dose: 200.0 mg/kg/injection, schedule: Q04DX002 (ip), vehicle: Klucel (hydroxypropylcellulose) (HPC)
[19] = dose: 400.0 mg/kg/injection, schedule: Q04DX002 (ip), vehicle: Klucel (hydroxypropylcellulose) (HPC)

Measured: T/C

COc1ccc(CCN)cc1
inactive: [1] 101 % of control | [2] 97 % of control | dose: 100.0 mg/kg/injection, schedule: Q04DX002 (ip), vehicle: saline 97 % of control and 109 % of control

CN(C)CCOc1ccc(Cl)cc1Cc1ccccc1
inactive: dose: 3.12 mg/kg/injection, schedule: Q01DX009 (ip), vehicle: saline 95 % of control | dose: 6.25 mg/kg/injection, schedule: Q01DX009 (ip), vehicle: saline 95 % of control | dose: 12.5 mg/kg/injection, schedule: Q01DX009 (ip), vehicle: saline 118 % of control | dose: 25.0 mg/kg/injection, schedule: Q01DX009 (ip), vehicle: saline 105 % of control | [3] 100 % of control | dose: 50.0 mg/kg/injection, schedule: Q01DX009 (ip), vehicle: saline 112 % of control | [4] 94 % of control

CSc1nc(C)c(Cl)c(SC)n1
inactive: dose: 50.0 mg/kg/injection, schedule: Q01DX009 (ip), vehicle: Klucel (hydroxypropylcellulose) (HPC) 101 % of control | [5] 117 % of control | [6] 97 % of control

S=C(C#Cc1ccccc1)Nc1ccccc1
inactive: dose: 100.0 mg/kg/injection, schedule: Q04DX002 (ip), vehicle: saline with Tween-80 93 % of control | dose: 200.0 mg/kg/injection, schedule: Q04DX002 (ip), vehicle: saline with Tween-80 86 % of control

CN=C(N)c1ccc(N=C(N)c2ccc(N=C(N)c3ccc(C(N)=NC)cc3)cc2)cc1
inactive: dose: 3.7 mg/kg/injection, schedule: Q01DX001 (ip), vehicle: water 108 % of control | dose: 5.3 mg/kg/injection, schedule: Q01DX001 (ip), vehicle: water 103 % of control | dose: 8.0 mg/kg/injection, schedule: Q01DX001 (ip), vehicle: water 102 % of control | dose: 12.0 mg/kg/injection, schedule: Q01DX001 (ip), vehicle: water 108 % of control

c1ccc(-c2[nH]c3ccccc3c2-c2ccccc2)cc1
inactive: dose: 50.0 mg/kg/injection, schedule: Q04DX003 (ip), vehicle: Klucel (hydroxypropylcellulose) (HPC) 90 % of control | [5] 106 % of control | [7] 98 % of control | [6] 103 % of control | [8] 106 % of control | [9] 96 % of control | [10] 92 % of control

Cc1ccc(S(=O)(=O)N/N=C2\C(=O)C3CCC2C3Cl)cc1 (stereo unspecified)
inactive: dose: 75.0 mg/kg/injection, schedule: Q01DX001 (ip), vehicle: other 89 % of control | dose: 150.0 mg/kg/injection, schedule: Q01DX001 (ip), vehicle: other 92 % of control

CCCCOP(=O)(OCCCC)O/C(C)=C(\C)OP(=O)(OCC)OCC
inactive: [1] 97 % of control and 102 % of control | [3] 102 % of control | [2] 95 % of control and 97 % of control | [4] 108 % of control | dose: 100.0 mg/kg/injection, schedule: Q04DX003 (ip), vehicle: saline 108 % of control | dose: 200.0 mg/kg/injection, schedule: Q04DX002 (ip), vehicle: saline 97 % of control

CC1CCCCN1P(c1ccccc1)N1CCCCC1C (stereo unspecified)
inactive: dose: 100.0 mg/kg/injection, schedule: Q04DX002 (sc), vehicle: olive oil, sesame oil, peanut oil 97 % of control | dose: 200.0 mg/kg/injection, schedule: Q04DX002 (sc), vehicle: olive oil, sesame oil, peanut oil 113 % of control | dose: 400.0 mg/kg/injection, schedule: Q04DX002 (sc), vehicle: olive oil, sesame oil, peanut oil 107 % of control

CCC/C=C(/C=O)CC
inactive: dose: 100.0 mg/kg/injection, schedule: Q01DX001 (ip), vehicle: saline with Tween-80 100 % of control | dose: 200.0 mg/kg/injection, schedule: Q01DX001 (ip), vehicle: saline with Tween-80 96 % of control | dose: 400.0 mg/kg/injection, schedule: Q01DX001 (ip), vehicle: saline with Tween-80 96 % of control

CCOc1ccc(/C=N/NS(=O)(=O)c2ccc(C)cc2)cc1
inactive: [5] 104 % of control | [7] 91 % of control | [6] 100 % of control | [8] 92 % of control | [9] 94 % of control | [10] 92 % of control

Nc1c(Cl)cc([N+](=O)[O-])cc1Cl
inactive: dose: 50.0 mg/kg/injection, schedule: Q01DX001 (ip), vehicle: carboxymethylcellulose (CMC) 95 % of control | [11] 92 % of control | dose: 100.0 mg/kg/injection, schedule: Q01DX009 (ip), vehicle: saline with Tween-80 103 % of control | [12] 97 % of control | [13] 106 % of control | dose: 200.0 mg/kg/injection, schedule: Q01DX009 (ip), vehicle: saline with Tween-80 92 % of control | [14] 93 % of control | [15] 95 % of control | dose: 400.0 mg/kg/injection, schedule: Q01DX009 (ip), vehicle: saline with Tween-80 95 % of control | [16] 93 % of control

CCCCCCCCCCCCCCCCOc1ccc2ccccc2c1
inactive: [7] 97 % of control | [8] 102 % of control | [10] 91 % of control

C=C(C)COc1c(C)cc(C)cc1[N+](=O)[O-]
inactive: [12] 96 % of control | [14] 100 % of control | [16] 97 % of control

CSc1nc(NC(=O)CCl)cc(NC(=O)CCl)n1
inactive: dose: 12.5 mg/kg/injection, schedule: Q01DX005 (ip), vehicle: saline 105 % of control | dose: 25.0 mg/kg/injection, schedule: Q01DX005 (ip), vehicle: saline 112 % of control

O=c1[nH]cnc2c1ncn2C1OC(CI)C(O)C1O (stereo unspecified)
inactive: dose: 100.0 mg/kg/injection, schedule: Q01DX005 (ip), vehicle: saline 95 % of control | dose: 200.0 mg/kg/injection, schedule: Q01DX005 (ip), vehicle: saline 101 % of control

CC(C)(C)NC(=O)NCc1ccc(Cl)cc1
inactive: [17] 100 % of control | [18] 88 % of control | [19] 111 % of control

COc1ccc(-c2ccc([N+](=O)[O-])cc2[N+](=O)[O-])cc1
inactive: [11] 105 % of control | [13] 110 % of control | [15] 105 % of control

c1ccc(C2(C3(c4ccccc4)SCCCS3)CN2)cc1 (stereo unspecified)
inactive: dose: 100.0 mg/kg/injection, schedule: Q01DX001 (ip), vehicle: Klucel (hydroxypropylcellulose) (HPC) 101 % of control | dose: 200.0 mg/kg/injection, schedule: Q01DX001 (ip), vehicle: Klucel (hydroxypropylcellulose) (HPC) 97 % of control

O=[N+]([O-])c1cccc(OCCCCBr)c1
inactive: dose: 100.0 mg/kg/injection, schedule: Q04DX003 (ip), vehicle: other 97 % of control | dose: 200.0 mg/kg/injection, schedule: Q04DX003 (ip), vehicle: other 110 % of control | dose: 400.0 mg/kg/injection, schedule: Q04DX003 (ip), vehicle: other 102 % of control

CC(=O)[O][Hg][c]1cc(C)cc([N+](=O)[O-])c1O
inactive: dose: 6.25 mg/kg/injection, schedule: Q01DX009 (ip), vehicle: Klucel (hydroxypropylcellulose) (HPC) 94 % of control | dose: 12.5 mg/kg/injection, schedule: Q01DX009 (ip), vehicle: Klucel (hydroxypropylcellulose) (HPC) 100 % of control | dose: 12.5 mg/kg/injection, schedule: Q04DX003 (ip), vehicle: Klucel (hydroxypropylcellulose) (HPC) 100 % of control | dose: 25.0 mg/kg/injection, schedule: Q01DX009 (ip), vehicle: Klucel (hydroxypropylcellulose) (HPC) 92 % of control | dose: 25.0 mg/kg/injection, schedule: Q04DX003 (ip), vehicle: Klucel (hydroxypropylcellulose) (HPC) 95 % of control

CCOC(=O)C1C(=O)C(CN(CCCl)CCCl)C(=O)C(C(=O)OCC)C1c1cc(OC)c(OC)c(OC)c1 (stereo unspecified)
inactive: [17] 114 % of control | [18] 102 % of control | [19] 111 % of control

CC(=O)Oc1cc(-c2c(C)cc(C)cc2C)c(OC(C)=O)cc1C
inactive: [5] 104 % of control | [7] 94 % of control | [6] 97 % of control | [8] 90 % of control | [9] 97 % of control | [10] 95 % of control
